Key:
[1] = tested on: H1975 cells; assay: VEGF secretion ELISA assay, H1975 cells; type: cell-based, human; conditions: H1975 expressing ZD6474 resistance mutation of VEGFR2; in vitro
Procedure: Cells were either treated with the indicated compounds or DMSO alone. After 4 hours cells were stimulated with 40 ng/ml of VEGF165, or incubated in medium containing DMSO only. Cells were then washed twice with PBS and supplemented with serum-free medium and allowed to secrete VEGF for 48 hours. Secretion of VEGF into cell culture supernatants was measured by Human VEGF Quantikine Kit (R&D Systems) according to manufacturer's instructions.

[2] = tested on: H1975
Procedure: (§1) All animal procedures were approved by the local animal protection committee and the local authorities. H1975, H441 and H1650 cells (5x10^6 cells) were injected subcutaneously into male nude mice. […] Mice were treated daily by oral gavage of ZD6474 (50 mg/kg, solved in vehicle), PD0325901 (12mg/kg, dissolved in propylene glycol:water (1:1)), the combination of ZD6474 (50 mg/kg) and PD0325901 (12mg/kg) or vehicle detergent alone. Tumor size of tumors expressing high levels of VEGFR2 (H441, H1975) and tumor with low expression of VEGFR2 (H1650) were monitored measuring perpendicular diameters.
(§2) All animal procedures were approved by the local animal protection committee and the local authorities. High VEGFR2 expressing tumor cell H1975 and H441 (5x10^6 cells), and very low VEGFR2 expressing cells H1650 (5x10^6 cells) were injected subcutaneously into male nude mice. […] Mice were treated daily by oral gavage of ZD6474 (50 mg/kg, solved in vehicle), PD0325901 (12mg/kg, dissolved in propylene glycol:water (1:1)), the combination of ZD6474 (50 mg/kg) and PD0325901 (12mg/kg) or vehicle detergent alone. Tumor size of tumors expressing high levels of VEGFR2 (H441, H1975) and tumor with low expression of VEGFR2 (H1650) were monitored during treatment measuring perpendicular diameters.

[3] = tested on: H1650; conditions: H1650, very low VEGFR2; daily oral gavage ZD6474 50 mg/kg, PD0325901 12mg/kg; start at about 50mm^3; Fig. 10
Procedure: as §1, §2

[4] = tested on: H441; conditions: H441, high VEGFR2; daily oral gavage ZD6474 50 mg/kg, PD0325901 12mg/kg; start at about 50mm^3; Fig. 10
Procedure: as §1, §2

COc1cc2c(Nc3ccc(Br)cc3F)ncnc2cc1OCC1CCN(C)CC1 [Vandetanib, N-(4-bromo-2-fluorophenyl)-6-methoxy-7-[(1-methylpiperidin-4-yl)methoxy]quinazolin-4-amine]
ZD6474-mediated inhibition of VEGF secretion [1]: abolished
tumor-growth inhibiting effects of the compound ([2]; H1975 expressing ZD6474 resistance mutation of VEGFR2, in vivo, Fig. 1e): suppressed

O=C(NOC[C@H](O)CO)c1ccc(F)c(F)c1Nc1ccc(I)cc1F [PD0325901, N-[(2R)-2,3-dihydroxypropoxy]-3,4-difluoro-2-[(2-fluoro-4-iodophenyl)amino]-benzamide]
tumor volume [3]: increased alike
tumor volume ([2]; H1975, high VEGFR2, daily oral gavage ZD6474 50 mg/kg, PD0325901 12mg/kg, start at about 50mm^3, Fig. 10): did not reduce the tumor volume
tumor volume [4]: did not reduce the tumor volume

Source: patent EP2626066A1, “Combination therapy comprising selective VEGFR-2 inhibitors and MEK inhibitors” (Max-Planck-Gesellschaft zur Förderung der Wissenschaften …, priority 2012, dated 2013)
